Where “and” joins values, the source holds several entries; their conditions need not be identical. Equal entries are not always repeated. Inconclusive results and toxic doses are left out. How the source made its calls: active means survival T/C of 150% or more; inactive means T/C below 125% in these data.
Test system: P388 leukemia ip, CD2F1 mice, survival T/C
Assay: NCI In Vivo Anticancer Drug Screen. Data for tumor model P388 Leukemia (intraperitoneal) in CD2F1 (CDF1) mice
Details: endpoint: median survival time, higher = longer survival
Method in brief: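 Mice carrying the transplanted tumor received test compound or vehicle. Survival was recorded in each group, and the value is the treated-group measurement divided by that of the vehicle-treated control group.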

[1] = dose: 50.0 mg/kg/injection, schedule: Q01DX005 (ip), vehicle: saline with Tween-80
[2] = dose: 100.0 mg/kg/injection, schedule: Q01DX005 (ip), vehicle: saline with Tween-80
[3] = dose: 200.0 mg/kg/injection, schedule: Q01DX005 (ip), vehicle: saline with Tween-80
[4] = dose: 50.0 mg/kg/injection, schedule: Q01DX009 (ip), vehicle: saline with Tween-80
[5] = dose: 100.0 mg/kg/injection, schedule: Q01DX009 (ip), vehicle: saline with Tween-80
[6] = dose: 200.0 mg/kg/injection, schedule: Q01DX009 (ip), vehicle: saline with Tween-80
[7] = dose: 60.0 mg/kg/injection, schedule: Q01DX005 (ip), vehicle: Klucel (hydroxypropylcellulose) (HPC)
[8] = dose: 120.0 mg/kg/injection, schedule: Q01DX005 (ip), vehicle: Klucel (hydroxypropylcellulose) (HPC)
[9] = dose: 60.0 mg/kg/injection, schedule: Q01DX005 (ip), vehicle: saline with Tween-80
[10] = dose: 120.0 mg/kg/injection, schedule: Q01DX005 (ip), vehicle: saline with Tween-80
[11] = dose: 60.0 mg/kg/injection, schedule: Q01DX005 (ip), vehicle: saline
[12] = dose: 120.0 mg/kg/injection, schedule: Q01DX005 (ip), vehicle: saline
[13] = dose: 240.0 mg/kg/injection, schedule: Q01DX005 (ip), vehicle: saline
[14] = dose: 50.0 mg/kg/injection, schedule: Q01DX009 (ip), vehicle: saline
[15] = dose: 200.0 mg/kg/injection, schedule: Q01DX009 (ip), vehicle: saline

Measured: T/C

COc1ccccc1/C=N/N1C(=O)C2C3C=CC(O3)C2C1=O (centres undefined)
inactive: [1] 104 % of control | [2] 89 % of control | [3] 93 % of control

CNC(=O)O/N=C/c1ccccc1-c1ccccc1
inactive: [4] 97 % of control | [5] 86 % of control

CCC(=O)N(C)C(C)C(=O)OC1CC(=O)N(C)c2cc(cc(OC)c2Cl)CC(C)CCCC(OC)C2(O)CC(OC(=O)N2)C(C)C2OC12C (centres undefined)
inactive: dose: 1.56 micrograms/kg/injection, schedule: Q01DX009 (ip), vehicle: saline + alcohol 106 % of control | dose: 3.12 micrograms/kg/injection, schedule: Q01DX009 (ip), vehicle: saline + alcohol 105 % of control | dose: 6.25 micrograms/kg/injection, schedule: Q01DX009 (ip), vehicle: saline + alcohol 110 % of control | dose: 12.5 micrograms/kg/injection, schedule: Q01DX009 (ip), vehicle: saline + alcohol 108 % of control | dose: 50.0 micrograms/kg/injection, schedule: Q01DX009 (ip), vehicle: saline + alcohol 105 % of control | dose: 100.0 micrograms/kg/injection, schedule: Q01DX009 (ip), vehicle: saline + alcohol 109 % of control | dose: 200.0 micrograms/kg/injection, schedule: Q01DX009 (ip), vehicle: saline + alcohol 102 % of control | dose: 400.0 micrograms/kg/injection, schedule: Q01DX009 (ip), vehicle: saline + alcohol 114 % of control

CC(C)(C)N=C(CCSc1ccccc1)Nc1ccccc1Cl
inactive: [4] 108 % of control | [5] 109 % of control | [6] 113 % of control

c1cc[c]([Sn]([S]C23CC4CC(CC(C4)C2)C3)([c]2ccccc2)[c]2ccccc2)cc1
inactive: dose: 100.0 mg/kg/injection, schedule: Q04DX003 (ip), vehicle: suspension in saline 94 % of control | dose: 200.0 mg/kg/injection, schedule: Q04DX003 (ip), vehicle: suspension in saline 98 % of control | dose: 400.0 mg/kg/injection, schedule: Q04DX003 (ip), vehicle: suspension in saline 93 % of control

CCOC(=O)c1ccc(NC(c2ccc(N(CCCl)CCCl)cc2)P(=O)(Oc2ccccc2)Oc2ccccc2)cc1 (centres undefined)
inactive: dose: 50.0 mg/kg/injection, schedule: Q01DX009 (ip), vehicle: Klucel (hydroxypropylcellulose) (HPC) 93 % of control | dose: 100.0 mg/kg/injection, schedule: Q01DX009 (ip), vehicle: Klucel (hydroxypropylcellulose) (HPC) 96 % of control | dose: 200.0 mg/kg/injection, schedule: Q01DX009 (ip), vehicle: Klucel (hydroxypropylcellulose) (HPC) 95 % of control

Cc1ccc(S(=O)(=O)C2(NC(=O)C3CC3)CC2)cc1
inactive: [7] 89 % of control | [8] 89 % of control

O=C1OCC/C1=C/O/C=C1\CCOC1=O
inactive: [9] 106 % of control | [10] 119 % of control

O=C1C2C3CCC(O3)C2C(=O)N1CCO (centres undefined)
inactive: [11] 96 % of control | [12] 89 % of control | [13] 98 % of control

CC(=O)C(Cl)C(=O)c1c(C)[nH]n(-c2ccccc2)c1=O (centres undefined)
inactive: dose: 50.0 mg/kg/injection, schedule: Q01DX005 (ip), vehicle: Klucel (hydroxypropylcellulose) (HPC) 110 % of control | dose: 100.0 mg/kg/injection, schedule: Q01DX005 (ip), vehicle: Klucel (hydroxypropylcellulose) (HPC) 123 % of control

CS(=O)(=O)Oc1ccc2c(c1)CCC2
inactive: dose: 50.0 mg/kg/injection, schedule: Q04DX003 (ip), vehicle: saline 99 % of control | dose: 100.0 mg/kg/injection, schedule: Q04DX003 (ip), vehicle: saline 101 % of control | dose: 200.0 mg/kg/injection, schedule: Q04DX003 (ip), vehicle: saline 108 % of control | dose: 400.0 mg/kg/injection, schedule: Q04DX003 (ip), vehicle: saline 102 % of control

CCOP(=O)(OCC)C1OCC(O)C(C2OC(P(=O)(OCC)OCC)OCC2O)O1 (centres undefined)
inactive: [14] 109 % of control | dose: 100.0 mg/kg/injection, schedule: Q01DX009 (ip), vehicle: saline 112 % of control | [15] 112 % of control

CN=C(N)N
inactive: dose: 50.0 mg/kg/injection, schedule: Q01DX001 (ip), vehicle: saline 100 % of control | dose: 100.0 mg/kg/injection, schedule: Q01DX001 (ip), vehicle: saline 98 % of control | dose: 200.0 mg/kg/injection, schedule: Q01DX001 (ip), vehicle: saline 100 % of control | dose: 400.0 mg/kg/injection, schedule: Q01DX001 (ip), vehicle: saline 101 % of control

O=C(c1ccccc1)C1(c2ccccc2)CC1
inactive: [4] 104 % of control | [5] 104 % of control | [6] 104 % of control | dose: 400.0 mg/kg/injection, schedule: Q01DX009 (ip), vehicle: saline with Tween-80 99 % of control

CC1C(=O)OC23CC(C)(C)C4OC42C(C)CCC13O (centres undefined)
inactive: dose: 0.37 mg/kg/injection, schedule: Q01DX009 (ip), vehicle: saline 93 % of control | dose: 0.75 mg/kg/injection, schedule: Q01DX009 (ip), vehicle: saline 99 % of control | dose: 1.5 mg/kg/injection, schedule: Q01DX009 (ip), vehicle: saline 97 % of control | dose: 3.0 mg/kg/injection, schedule: Q01DX009 (ip), vehicle: saline 99 % of control

O=c1[nH]c2ccccc2nc1CBr
inactive: dose: 1.56 mg/kg/injection, schedule: Q01DX009 (ip), vehicle: saline with Tween-80 109 % of control | dose: 3.13 mg/kg/injection, schedule: Q01DX009 (ip), vehicle: saline with Tween-80 109 % of control | dose: 6.25 mg/kg/injection, schedule: Q01DX009 (ip), vehicle: saline with Tween-80 113 % of control | dose: 8.33 mg/kg/injection, schedule: Q01DX009 (ip), vehicle: saline with Tween-80 118 % of control | dose: 12.5 mg/kg/injection, schedule: Q01DX009 (ip), vehicle: saline with Tween-80 113 % of control and 122 % of control | dose: 18.7 mg/kg/injection, schedule: Q01DX009 (ip), vehicle: saline with Tween-80 118 % of control

COC1OC2COC(c3ccccc3)OC2C(N=Cc2ccccc2)C1O (centres undefined)
inactive: [9] 104 % of control | [10] 103 % of control | dose: 240.0 mg/kg/injection, schedule: Q01DX005 (ip), vehicle: saline with Tween-80 100 % of control

Cc1cc(N(C)C)c2ccc(N(C)C)cc2n1
inactive: dose: 12.5 mg/kg/injection, schedule: Q01DX005 (ip), vehicle: saline with Tween-80 97 % of control | dose: 25.0 mg/kg/injection, schedule: Q01DX005 (ip), vehicle: saline with Tween-80 98 % of control | [1] 99 % of control and 104 % of control

COC(=O)C(Cc1cn(C(O)(NC(=O)OCc2ccccc2)C(F)(F)F)cn1)NC(=O)C(NC(=O)C(CC(C)C)NC(=O)C(CSC(c1ccccc1)(c1ccccc1)c1ccccc1)NC(=O)OCc1ccccc1)C(C)C (centres undefined)
inactive: [7] 91 % of control | [8] 110 % of control | dose: 240.0 mg/kg/injection, schedule: Q01DX005 (ip), vehicle: Klucel (hydroxypropylcellulose) (HPC) 96 % of control

CN(C)NC=O
inactive: [11] 102 % of control | [12] 102 % of control | [13] 114 % of control

CCC(C)C1NC(=O)C2C(CCN2C(=O)C(Cc2c[nH]c3ccccc23)NC(=O)C(CC(C)C)N(C)C)Oc2ccc(cc2)/C=C\NC1=O (centres undefined)
inactive: dose: 100.0 mg/kg/injection, schedule: Q04DX003 (ip), vehicle: saline with Tween-80 94 % of control | dose: 200.0 mg/kg/injection, schedule: Q04DX003 (ip), vehicle: saline with Tween-80 97 % of control

CCCCCCCC(C)c1cc(N)c(C)cc1[N+](=O)[O-] (centres undefined)
inactive: dose: 25.0 mg/kg/injection, schedule: Q04DX002 (ip), vehicle: Klucel (hydroxypropylcellulose) (HPC) 98 % of control | dose: 50.0 mg/kg/injection, schedule: Q04DX002 (ip), vehicle: Klucel (hydroxypropylcellulose) (HPC) 89 % of control

O=C(SCc1ccccc1)c1cccnc1
inactive: dose: 25.0 mg/kg/injection, schedule: Q01DX009 (ip), vehicle: saline with Tween-80 105 % of control | [4] 110 % of control | [5] 100 % of control

CCCCCCCCS(=O)(=O)NC
inactive: dose: 25.0 mg/kg/injection, schedule: Q01DX009 (ip), vehicle: saline 117 % of control | [14] 102 % of control | [15] 102 % of control

C[N+]1(C)CCC2=CC(=O)CC(c3ccccc3)C2C1 (centres undefined)
inactive: [1] 100 % of control | [2] 98 % of control | [3] 103 % of control

C=CC[S+]1CCCCC1C=C (centres undefined)
inactive: dose: 100.0 mg/kg/injection, schedule: Q01DX001 (ip), vehicle: saline with Tween-80 94 % of control | dose: 200.0 mg/kg/injection, schedule: Q01DX001 (ip), vehicle: saline with Tween-80 95 % of control | dose: 400.0 mg/kg/injection, schedule: Q01DX001 (ip), vehicle: saline with Tween-80 95 % of control
